Experimental data reported in patent publication US10959432B2, “Microbiocidal oxadiazole derivatives” (Syngenta Participations AG, priority 2016, dated 2021).
“And” between values parts separate entries of the source, which are not always exact repeats. Equal entries are not always repeated.

Legend:
[1] = test system: Glomerella laqenarium (Colletotrichum lagenarium); assay: Fungicidal activity against Glomerella lagenarium (Colletotrichum lagenarium) liquid culture / cucumber / preventative (anthracnose); assay type: cell-based; conditions: Colletotrichum orbiculare; 20 ppm in the applied formulation; liquid culture in PDB, 24° C., 3 to 4 days after application; read-out: disease control compared to untreated control (inhibition of growth measured photometrically)
In short: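 Cryostored conidia mixed into potato dextrose broth and added to test compound (from DMSO solution) in microtiter plates. Incubated at 24 °C; growth inhibition read photometrically 3 to 4 days after application, as percent activity versus untreated check.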

[2] = test system: Puccinia recondita f. sp. tritici; assay: Fungicidal activity against Puccinia recondita f. sp. tritici / wheat / leaf disc preventative (brown rust); assay type: in vivo; conditions: foliar, 200 ppm in the applied formulation, wheat leaf segments cv. Kanzler, preventative (inoculated 1 day after application), assessed 7 to 9 days after application, read-out: disease control compared to untreated control leaf disks
In short: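 Wheat cv. Kanzler leaf segments on agar sprayed with formulated compound diluted in water, inoculated with P. recondita spores 1 day later. Incubated at 19C, 75% rh, 12 h light/12 h dark; scored 7 to 9 days after application as percent disease control versus untreated segments. Test rate 200 ppm.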

Phakopsora pachyrhizi = assay: Fungicidal activity against Phakopsora pachyrhizi / soybean / leaf disc preventative (Asian soybean rust); assay type: in vivo; conditions: foliar, 200 ppm in the applied formulation, soybean leaf disks, preventative (inoculated one day after application), assessed 12 to 14 days after application, read-out: disease control compared to untreated control leaf disks
In short: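 Soybean leaf discs on water agar sprayed with formulated compound diluted in water; spore suspension sprayed on lower leaf surface one day later. Incubated 24-36 h dark at 20° C, 75% rh, then 20° C, 12 h light/day, 75% rh. Percent disease control versus untreated scored 12 to 14 days after application.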

Uromyces viciae-fabae = assay: Fungicidal activity against Uromyces viciae-fabae / field bean / leaf disc preventative (faba-bean rust); assay type: in vivo; conditions: foliar, 288 h, 100 ppm in the applied formulation, field bean leaf discs, preventative (inoculated two hours after application), assessed 12 days after application, read-out: disease control compared to untreated control leaf discs
In short: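 Field bean leaf discs on water agar treated with 10 μl compound in acetone plus spreader, then spray-inoculated on the lower surface with Uromyces viciae-fabae spores 2 h later. Incubation at 22 °C, 18 h day, 70% RH; percent disease control versus untreated scored 12 days after application, compounds at 100 ppm.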

[3] = test system: Puccinia recondita f. sp. tritici; assay: Fungicidal activity against Puccinia recondita f. sp. tritici / wheat / leaf disc curative (brown rust); assay type: in vivo; conditions: foliar, 200 ppm in the applied formulation, wheat leaf segments cv. Kanzler, curative (applied 1 day after inoculation), assessed 6 to 8 days after application, read-out: disease control compared to untreated control leaf disks
In short: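 Wheat cv. Kanzler leaf segments on agar, spore-inoculated, held dark at 19° C./75% RH; formulated compound in water sprayed 1 day post-inoculation (curative). Incubated 19° C., 75% RH, 12 h light/12 h dark; percent disease control vs untreated scored 6 to 8 days after application.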

Compound | inhibition at 20 ppm [1] [%] | melting point | pest or weed control at 200 ppm [2] [%] | pest or weed control at 200 ppm (Phakopsora pachyrhizi) [%] | pest or weed control at 100 ppm (Uromyces viciae-fabae) [%] | pest or weed control at 200 ppm [3] [%]
O=C(NCc1ccc(F)cc1)c1ccc(-c2noc(C(F)(F)F)n2)cc1F [Compound 4b.2] | ≥ 80 | 145 to 147 °C | ≥ 80 | ≥ 80 | ≥ 80 | –
O=C(NCCc1ccc(F)cc1)c1ccc(-c2noc(C(F)(F)F)n2)cc1F [Compound 4b.7, 2-fluoro-N-[2-(4-fluorophenyl)ethyl]-4-[5-(trifluoromethyl)-1,2,4-oxadiazol-3-yl]benzamide] | ≥ 80 | 128.2 to 129.4 °C | ≥ 80 | ≥ 80 | ≥ 80 | –
O=C(NCC1CCOCC1)c1ccc(-c2noc(C(F)(F)F)n2)cc1F [Compound 1b.18, 2-fluoro-N-(tetrahydropyran-4-ylmethyl)-4-[5-(trifluoromethyl)-1,2,4-oxadiazol-3-yl]benzamide] | ≥ 80 | 134 to 136 °C and 134 to 135.4 °C | ≥ 80 | ≥ 80 | ≥ 80 | ≥ 80
CN(C(=O)c1ccc(-c2noc(C(F)(F)F)n2)cc1)c1ncn[nH]1 [Compound 5a.5, N-methyl-N-(1H-1,2,4-triazol-5-yl)-4-[5-(trifluoromethyl)-1,2,4-oxadiazol-3-yl]benzamide] | ≥ 80 | 125 to 128 °C | ≥ 80 | ≥ 80 | ≥ 80 | ≥ 80
Cc1nc(CN(C)C(=O)c2ccc(-c3noc(C(F)(F)F)n3)cc2F)cs1 [Compound 5b.15, 2-fluoro-N-methyl-N-[(2-methylthiazol-4-yl)methyl]-4-[5-(trifluoromethyl)-1,2,4-oxadiazol-3-yl]benzamide] | ≥ 80 | 96.3 to 98.4 °C | ≥ 80 | ≥ 80 | ≥ 80 | ≥ 80
COCCNC(=O)c1ccc(-c2noc(C(F)(F)F)n2)cc1F [Compound 3b.6, 2-fluoro-N-(2-methoxyethyl)-4-[5-(trifluoromethyl)-1,2,4-oxadiazol-3-yl]benzamide] | ≥ 80 | 87.6 to 89 °C | ≥ 80 | ≥ 80 | ≥ 80 | ≥ 80
Cc1ccccc1CNC(=O)c1ccc(-c2noc(C(F)(F)F)n2)cc1 [Compound 4a.4, N-(o-tolylmethyl)-4-[5-(trifluoromethyl)-1,2,4-oxadiazol-3-yl]benzamide] | ≥ 80 | 135 to 141 °C | ≥ 80 | ≥ 80 | ≥ 80 | ≥ 80
C=CCNC(=O)c1ccc(-c2noc(C(F)(F)F)n2)cc1 [Compound 3a.1, N-allyl-4-[5-(trifluoromethyl)-1,2,4-oxadiazol-3-yl]benzamide] | ≥ 80 | 135 to 136 °C and 135 to 146 °C | ≥ 80 | ≥ 80 | ≥ 80 | ≥ 80
C#CC(C)(C)NC(=O)c1ccc(-c2noc(C(F)(F)F)n2)cc1F [Compound 3b.8, N-(1,1-dimethylprop-2-ynyl)-2-fluoro-4-[5-(trifluoromethyl)-1,2,4-oxadiazol-3-yl]benzamide] | ≥ 80 | 69.2 to 69.7 °C | ≥ 80 | ≥ 80 | ≥ 80 | ≥ 80
C#CCNC(=O)c1ccc(-c2noc(C(F)(F)F)n2)cc1 [Compound 3a.2, N-prop-2-ynyl-4-[5-(trifluoromethyl)-1,2,4-oxadiazol-3-yl]benzamide] | ≥ 80 | 168.5 to 170 °C | ≥ 80 | ≥ 80 | ≥ 80 | ≥ 80
CC(C)(CO)NC(=O)c1ccc(-c2noc(C(F)(F)F)n2)cc1 [Compound 3a.17, N-(2-hydroxy-1,1-dimethyl-ethyl)-4-[5-(trifluoromethyl)-1,2,4-oxadiazol-3-yl]benzamide] | ≥ 80 | 130 to 135 °C | ≥ 80 | – | ≥ 80 | ≥ 80
CC(C)CNC(=O)c1ccc(-c2noc(C(F)(F)F)n2)cc1F [Compound 3b.5, 2-fluoro-N-isobutyl-4-[5-(trifluoromethyl)-1,2,4-oxadiazol-3-yl]benzamide] | ≥ 80 | 126.6 to 128.3 °C | ≥ 80 | ≥ 80 | ≥ 80 | ≥ 80
O=C(NCc1ccccc1)c1ccc(-c2noc(C(F)(F)F)n2)cc1F [Compound 4b.6, N-benzyl-2-fluoro-4-[5-(trifluoromethyl)-1,2,4-oxadiazol-3-yl]benzamide] | – | 146 to 147.7 °C | ≥ 80 | ≥ 80 | ≥ 80 | ≥ 80
COc1ccccc1CNC(=O)c1ccc(-c2noc(C(F)(F)F)n2)cc1F [Compound 4b.5, 2-fluoro-N-[(2-methoxyphenyl)methyl]-4-[5-(trifluoromethyl)-1,2,4-oxadiazol-3-yl]benzamide] | ≥ 80 | 113.3 to 114.8 °C | ≥ 80 | ≥ 80 | ≥ 80 | –
O=C(NCc1cccs1)c1ccc(-c2noc(C(F)(F)F)n2)cc1F [Compound 5b.1, 2-fluoro-N-(2-thienylmethyl)-4-[5-(trifluoromethyl)-1,2,4-oxadiazol-3-yl]benzamide] | – | 142.7 to 143 °C | ≥ 80 | ≥ 80 | ≥ 80 | ≥ 80
CC#CC(C)(C)NC(=O)c1ccc(-c2noc(C(F)(F)F)n2)cc1 [Compound 3a.5, N-(1,1-dimethylbut-2-ynyl)-4-[5-(trifluoromethyl)-1,2,4-oxadiazol-3-yl]benzamide] | – | 104 to 105.1 °C | ≥ 80 | ≥ 80 | ≥ 80 | ≥ 80
CC(C)CC(C)NC(=O)c1ccc(-c2noc(C(F)(F)F)n2)cc1F (stereo not shown) [Compound 3b.7, N-(1,3-dimethylbutyl)-2-fluoro-4-[5-(trifluoromethyl)-1,2,4-oxadiazol-3-yl]benzamide] | ≥ 80 | 108.5 to 110.4 °C | ≥ 80 | ≥ 80 | ≥ 80 | –
Cc1cccc(CNC(=O)c2ccc(-c3noc(C(F)(F)F)n3)cc2)c1 [Compound 4a.2, N-(m-tolylmethyl)-4-[5-(trifluoromethyl)-1,2,4-oxadiazol-3-yl]benzamide] | ≥ 80 | 135 to 141 °C | ≥ 80 | ≥ 80 | ≥ 80 | –
O=C(NCCc1ccccc1)c1ccc(-c2noc(C(F)(F)F)n2)cc1F [Compound 4b.8, 2-fluoro-N-(2-phenylethyl)-4-[5-(trifluoromethyl)-1,2,4-oxadiazol-3-yl]benzamide] | ≥ 80 | 130 to 131.9 °C | ≥ 80 | ≥ 80 | ≥ 80 | –
O=C(NCc1ccccc1F)c1ccc(-c2noc(C(F)(F)F)n2)cc1F [Compound 4b.1, 2-fluoro-N-[(2-fluorophenyl)methyl]-4-[5-(trifluoromethyl)-1,2,4-oxadiazol-3-yl]benzamide] | ≥ 80 | 132 to 136 °C | ≥ 80 | ≥ 80 | ≥ 80 | –
